Data set [1] deals with T1, OsNIN8 (MBP-OsNIN8), neutral invertase 8 (Oryza sativa, UniProt Q69T31, E501A).
T1 construct: gene CINV1; N-terminal MBP fusion (pETMALc-H), tag kept, expressed in E. coli BL21(DE3), amylose resin purified
T1 sequence (Q69T31 1-562 E501A): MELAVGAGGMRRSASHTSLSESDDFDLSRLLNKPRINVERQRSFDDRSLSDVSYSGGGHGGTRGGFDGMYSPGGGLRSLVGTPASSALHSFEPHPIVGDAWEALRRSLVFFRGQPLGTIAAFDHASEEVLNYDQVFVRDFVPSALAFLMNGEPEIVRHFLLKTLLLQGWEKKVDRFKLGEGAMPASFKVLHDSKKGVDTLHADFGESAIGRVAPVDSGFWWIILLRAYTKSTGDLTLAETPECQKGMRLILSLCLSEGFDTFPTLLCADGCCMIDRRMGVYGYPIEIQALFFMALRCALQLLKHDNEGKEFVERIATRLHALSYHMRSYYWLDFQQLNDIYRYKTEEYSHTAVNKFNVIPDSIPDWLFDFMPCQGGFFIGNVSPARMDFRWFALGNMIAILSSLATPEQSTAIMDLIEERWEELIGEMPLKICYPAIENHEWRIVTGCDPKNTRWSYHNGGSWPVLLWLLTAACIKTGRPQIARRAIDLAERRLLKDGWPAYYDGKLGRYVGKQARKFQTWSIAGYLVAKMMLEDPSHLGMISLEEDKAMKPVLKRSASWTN
In words: ITC incremental titration. It is filed as binding. The conditions noted are these: 25 °C, 0.1 mM protein, 10 mM sucrose in syringe; catalytic-residue mutant.

The target of data set [2] is T2, OsNIN8 (MBP-OsNIN8), neutral invertase 8 (Oryza sativa, UniProt Q69T31, D275A/E501A).
T2 construct: gene CINV1; N-terminal MBP fusion (pETMALc-H), tag kept, expressed in E. coli BL21(DE3), amylose resin purified
T2 sequence (Q69T31 1-562 D275A/E501A): T1 sequence (Q69T31 1-562 E501A) with D275A
Description: ITC incremental titration. It is filed as binding. The conditions noted are these: 25 °C, 0.1 mM protein, 10 mM sucrose in syringe; catalytic-residue mutant.

The target in data set [3] is T3, OsNIN8 (MBP-OsNIN8), neutral invertase 8 (Oryza sativa, UniProt Q69T31, G461R).
T3 construct: gene CINV1; N-terminal MBP fusion (pETMALc-H), tag kept, expressed in E. coli BL21(DE3), amylose resin purified
T3 sequence (Q69T31 1-562 G461R): T1 sequence (Q69T31 1-562 E501A) with G461R, A501E
In words: pulldown on amylose magnetic beads with GC-TOF MS; ITC titration. It is filed as binding. The conditions noted are these: 50 mM potassium phosphate pH 6.4, 25 °C; OsNIN8m, retains residual sucrose hydrolysis. (In general: In ITC the heat of successive injections is recorded.)

The target in data set [4] is T4, OsNIN8 (MBP-OsNIN8), neutral invertase 8 (Oryza sativa, UniProt Q69T31, D275A).
T4 construct: gene CINV1; N-terminal MBP fusion (pETMALc-H), tag kept, expressed in E. coli BL21(DE3), amylose resin purified
T4 sequence (Q69T31 1-562 D275A): T1 sequence (Q69T31 1-562 E501A) with D275A, A501E
In words: ITC incremental titration. In kind it is binding. The conditions noted are these: 25 °C, 0.1 mM protein, 10 mM sucrose in syringe; catalytic-residue mutant.

Substrate in the data set “purified protein”: OC[C@H]1O[C@@](CO)(O[C@H]2O[C@H](CO)[C@@H](O)[C@H](O)[C@H]2O)[C@@H](O)[C@@H]1O
In words: purified protein. In kind it is biochemical, Oryza sativa. The conditions noted are these: 50 mM potassium phosphate pH 6.4, fit over 0-20 mM sucrose (substrate inhibition above 20 mM).

Positions count from the first letter of the chain named.

Consider `OC[C@H]1O[C@@](CO)(O[C@H]2O[C@H](CO)[C@@H](O)[C@H](O)[C@H]2O)[C@@H](O)[C@@H]1O` [Sucrose], for which the ITC incremental titration result is on record as “all had not hydrolytic activity on sucrose, showed their bindings to sucrose were exotherm” in data set [1]; “all had not hydrolytic activity on sucrose, showed their bindings to sucrose were exotherm” in data set [2]; “all had not hydrolytic activity on sucrose, showed their bindings to sucrose were exotherm” in data set [4]. For the same molecule, in data set [3], the “pulldown on amylose magnetic beads with GC-TOF MS; ITC titration” value is “OsNIN8m bound more sucrose than OsNIN8 did”.

B1: OsNIN8 (MBP-OsNIN8), neutral invertase 8 (Oryza sativa Japonica Group) (protein)
chain: T1 sequence (Q69T31 1-562 E501A) with A501E
notes: N-terminal MBP fusion (pETMALc-H), tag kept, expressed in E. coli BL21(DE3), amylose resin purified
By Km is commonly meant the substrate concentration at which the rate is half of its maximum. On to B1, for which, in the data set “purified protein”, the Km was found to be 2718 ± 347 µM.

These data come from paper PMC11237924, “A neutral invertase controls cell division besides hydrolysis of sucrose for nutrition during germination and seed setting in rice” (iScience, 2024).
